Common to all, as to experiment: NCI anticancer screen, dose series, 48 h
Assay [1] has as its system SK-MEL-28 melanoma.
Assay [2] has as its system A549 NSCLC.
For assay [3], the system named is RPMI-8226 leukemia.
Assay [4] relates to OVCAR-4 ovarian.
For assay [5], the system named is IGROV1 ovarian.
In assay [6] the test system is OVCAR-8 ovarian.
In assay [7] the test system is MDA-N.
The subject of assay [8] is SN12C renal.
In assay [9] the test system is K-562 leukemia.
Assay [10] relates to M14 melanoma.
The test system of assay [11] is RXF 393 renal.

Each structure is given as a SMILES string.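 Dose response: 5 concentrations. Exposure: 48 h. Format: 96-well plates. Endpoint: linear interpolation; highest concentration if not reached. Definition used: TGI = concentration required for complete inhibition of growth.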

With `NS(=O)(=O)c1ccc(N=Nc2ccc(O)cc2)cc1`, the TGI in assay [1], in assay [2], in assay [3], in [4], in assay [5] and in [6] was > 100 µM each time. In addition, the TGI in assay [7], in [8], in assay [9], in assay [10] and in assay [11] was > 100 µM in each case.
For the compound `Cc1ccc(N2C=Nn3c(nc4sc5c(c4c3=O)CCCC5)C2)cc1`, the TGI in [1], in [2], in assay [3], in assay [4], in assay [5] and in [6] was > 100 µM each time. Further, the TGI in assay [7], in [8], in assay [9], in assay [10] and in assay [11] was > 100 µM throughout.
Take `Cc1cc(-c2nc3ccc(F)cc3s2)ccc1NC(=O)C(N)CCCCN` (centres undefined): the TGI in [1] came to 34.8 µM; in assay [2], 5.54 µM; in assay [3], 12.5 µM; in [4] it was 24.6 µM; in [5], 17.6 µM; in [6], 22.3 µM. Besides, the TGI in [7] amounted to 5 µM; in [8], 21.3 µM; in assay [9] it was 8.2 µM; in assay [10] it was 6.57 µM; in assay [11], 25.3 µM.
Consider `COc1ccc2nc(N/N=C/c3ccc(C)s3)cc(C)c2c1`, for which the TGI in assay [1] is > 100 µM; in [2], > 100 µM; in assay [3], 37.3 µM; in assay [4], 48.7 µM; in assay [5], 90 µM; in [6], 55.7 µM. Besides, the TGI in assay [7] amounted to 38.2 µM; in assay [8] it was 38.3 µM; in [9] it was 49 µM; in [10], 37.7 µM; in assay [11], 41.6 µM.
`C/C(CC(O)(C(F)(F)F)C(F)(F)F)=N\NC(N)=S`: the TGI in [1], in [2], in assay [3], in assay [4], in assay [5] and in assay [6] was > 10 µM each time. In addition, the TGI in [7], in assay [8], in [9], in [10] and in [11] was > 10 µM throughout.
As for `CC1(C)C(CBr)=[N+]([O-])C(C)(C)N1O`, the TGI in assay [1] is > 10 µM; in [2], > 10 µM; in assay [3] it was > 8.63 µM; in assay [4], 4.23 µM; in assay [5], > 10 µM; in assay [6], > 10 µM. Besides, the TGI is > 10 µM in assay [7]; 9.93 µM in assay [8]; > 8.04 µM in [9]; 5.65 µM in assay [10]; 8.15 µM in [11].
For `CCCC(=O)Nc1cc(/C=C/C(=O)N2CC(CCl)c3ccc([N+](=O)[O-])cc32)n(C)c1` (centres undefined), the TGI in assay [1], in assay [2], in [3], in [4], in assay [5] and in [6] was > 100 µM throughout. In addition, the TGI in assay [7], in [8], in assay [9], in [10] and in [11] was > 100 µM throughout.
With `COc1cc(/C=C2\N=C(c3ccccc3)N(c3nc4ccccc4s3)C2=O)cc(OC)c1OC`, the TGI in assay [1] was > 100 µM; in assay [2], > 100 µM; in assay [3], 16.7 µM; in [4] it was 68 µM; in assay [5] it was > 100 µM; in assay [6], > 100 µM. Moreover, the TGI was 54.4 µM in assay [7]; 82.4 µM in assay [8]; > 100 µM in assay [9]; > 100 µM in [10]; 50.7 µM in assay [11].
As for `Cc1c(C)c(S(=O)(=O)N(CCCN)OCCCN)c(C)c2c1OC(C)(C)CC2`, the TGI in assay [1] came to 28.5 µM; in [2] it was 29.6 µM; in [3] it was 35.7 µM; in [4], 23.6 µM; in [5], 20.3 µM; in assay [6], 29.8 µM. Moreover, the TGI is 29.2 µM in assay [7]; 28.4 µM in [8]; 29.6 µM in assay [9]; 27.7 µM in assay [10]; 21.4 µM in assay [11].

(Values after PubChem BioAssay (NCI).)
